Data published in ChEMBL document CHEMBL1142899, “4-amino-5-aryl-6-arylethynylpyrimidines: structure-activity relationships of non-nucleoside adenosine kinase inhibitors” (Bioorg Med Chem, 2007).
Active and inactive are the calls of the source. The rule behind the calls is not given here.

What was measured:
[1] = biological target: T1, Adenosine kinase (Homo sapiens, UniProt P55263); assay: Inhibition of cytosolic adenosine kinase
[2] = biological target: T1, Adenosine kinase; assay: Inhibition of adenosine kinase in intact cells assessed as adenosine phosphorylation; assay type: functional, cell-based
[3] = tested on: Rattus norvegicus; assay: Reduction of formalin-induced nociception in rat at 10 umol/kg, ip by paw flinching test; assay type: functional; design: scale not given: the % may be the effect or the level left
[4] = tested on: Mus musculus; assay: Analgesic activity in mouse assessed as maximal protective effect at 30 umol/kg, ip by hot plate test; assay type: functional
[5] = Half life in rat at 5 umol/kg, iv; assay type: ADME, organism-based; settings: in vivo
[6] = Volume of distribution in rat at 5 umol/kg, iv; assay type: ADME, organism-based; settings: in vivo, read-out: Vbeta
[7] = Plasma clearance in rat at 5 umol/kg, iv; assay type: ADME, organism-based
[8] = Cmax in rat at 5 umol/kg, po; assay type: ADME, organism-based; design: dose 5 umol/kg, route oral; settings: in vivo
[9] = Bioavailability in rat at 5 umol/kg, po; assay type: ADME, organism-based; settings: in vivo
[10] = Metabolic stability in rat hepatocyte after 24 hrs; assay type: ADME, cell-based; settings: hepatocytes, read-out: Stability
[11] = Metabolic stability in human liver microsomes after 1 hr; assay type: ADME, Microsome; settings: read-out: Stability
[12] = tested on: Rattus norvegicus; assay: Reduction of formalin-induced nociception in rat upto 30 umol/kg, ip by paw flinching test; assay type: functional, organism-based
[13] = species: Rattus norvegicus; assay: Analgesic activity in spinal nerve ligated Sprague-Dawley rat by chung assay neuropathic pain animal model; assay type: functional, organism-based

T1 sequence (P55263 whole entry): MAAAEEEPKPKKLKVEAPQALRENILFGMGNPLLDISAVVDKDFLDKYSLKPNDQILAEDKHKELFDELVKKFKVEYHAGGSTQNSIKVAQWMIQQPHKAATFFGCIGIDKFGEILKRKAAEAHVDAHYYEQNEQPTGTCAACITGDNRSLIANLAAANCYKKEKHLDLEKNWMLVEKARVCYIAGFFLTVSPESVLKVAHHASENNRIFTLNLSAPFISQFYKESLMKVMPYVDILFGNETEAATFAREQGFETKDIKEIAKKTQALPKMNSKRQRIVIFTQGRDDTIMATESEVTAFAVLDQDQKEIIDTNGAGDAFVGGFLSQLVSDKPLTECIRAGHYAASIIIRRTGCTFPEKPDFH

SMILES	IC50 [1]	IC50 [2]	further results
Cc1ccc(-c2c(N)ncnc2C#Cc2ccc(N(C)C)cc2)cc1	13 nM	330 nM	
COCCN(C)c1ccc(C#Cc2ncnc(N)c2-c2ccc(Cl)cc2)cn1	1 nM	80 nM	Activity [3]: 48%
CN(C)c1ccc(C#Cc2ncnc(N)c2-c2ccc(N(C)C)cc2)cc1	5 nM	240 nM	
CN(C)c1ccc(C#Cc2ncnc(N)c2-c2ccc3c(c2)OCO3)cc1		250 nM	
C#Cc1ncnc(N)c1-c1ccc2c(c1)OCO2	> 1000 nM		
Nc1ncnc(C#Cc2cncc(N3CCOCC3)c2)c1-c1ccc(Cl)cc1	8 nM	110 nM	Activity [3]: 49%
CN(C)c1cc(N2CCOCC2)ncc1C#Cc1ncnc(N)c1-c1ccc2c(c1)OCO2	72 nM	215 nM	
CN(C)c1ccc(C#Cc2ncnc(N(C)C)c2-c2ccc(Cl)cc2)cc1	300 nM	> 1000 nM	
COCCN(C)c1cc(N2CCOCC2)ncc1C#Cc1ncnc(N)c1-c1ccc2c(c1)OCO2	101 nM	198 nM	
CN(C)c1ccc(C#Cc2cc(NCc3ccccc3)ncn2)cc1	> 1000 nM		
CC(C)c1ccc(C#Cc2ncnc(N)c2-c2ccc(Cl)cc2)cc1	50 nM	> 1000 nM	
Nc1ncnc(C#Cc2ccc(N3CCOCC3)nc2)c1-c1cccs1	13 nM	167 nM	Activity [3]: 44%
Nc1ncnc(C#Cc2ccc(N3CCOCC3)nc2)c1-c1ccsc1	38 nM	212 nM	
CN(C)c1ccc(C#Cc2ncnc(N)c2-c2cccc(Cl)c2)cc1	10 nM	550 nM	
CN(C)c1ccc(C#Cc2ncnc(N)c2C(c2ccccc2)c2ccccc2)cc1	600 nM		
Nc1ncnc(C#Cc2ccc(N3CCOCC3)nc2)c1-c1cc2ccccc2o1	1 nM	123 nM	Activity [3]: 36%
CC(C)NC(=O)Nc1cc(C#Cc2ncnc(N)c2-c2ccc3c(c2)OCO3)cnc1N1CCOCC1	18 nM	88 nM	
CN(C)c1ccc(C#Cc2ncnc(NCCc3c[nH]cn3)c2-c2ccc(Cl)cc2)cc1	80 nM	> 1000 nM	
CN(C)c1ccc(C#Cc2ncnc(N)c2-c2ccccc2Cl)cc1	75 nM	700 nM	

SMILES	IC50 [1]	IC50 [2]	further results
Nc1ncnc(C#Cc2ccc(N3CCOCC3)nc2)c1-c1ccc2c(c1)OCO2	10 nM	120 nM	Activity [3]: 47%
Nc1ncnc(C#Cc2ccc(N3CCOCC3)nc2)c1-c1cc2ccccc2s1	0.4 nM	100 nM	Activity [3]: 49%
CC(C)(C)OC(=O)N1CCN(c2ccc(C#Cc3ncnc(N)c3-c3ccc(Cl)cc3)cn2)CC1	62 nM	> 1000 nM	
CN(C)c1ccc(C#Cc2ncnc(N3CCNCC3)c2-c2ccc(Cl)cc2)cc1	8 nM	> 1000 nM	
CN(C)c1ccc(C#Cc2ncnc(N)c2-c2ccccc2)cc1		> 1000 nM	
Cc1nc(N)c(-c2ccccc2)c(C#Cc2ccc(N(C)C)cc2)n1	> 1000 nM		
CN(C)c1ccc(-c2c(N)ncnc2C#Cc2ccc(N3CCOCC3)nc2)cc1	2 nM		Activity [4]: 100%; Activity [3]: 44%; half-life [5]: 30 min; Vd [6]: 0.7 L/kg; clearance [7]: 16.7 mL/min/kg; Cmax [8]: 80 ng/mL; bioavailability [9]: 9%; remaining at 24 h [10]: 21%; remaining at 1 h [11]: 74%
Nc1ncnc(C#Cc2ccccn2)c1-c1ccc(Cl)cc1	500 nM	> 1000 nM	
Nc1ncnc2nc(-c3ccc(N4CCOCC4)nc3)cc(-c3cccc(Br)c3)c12			Vd [6]: 1 L/kg; Cmax [8]: 550 ng/mL
CN(C)c1cc(C#Cc2ncnc(N)c2-c2ccc3c(c2)OCO3)cnc1N1CCOCC1	26 nM	161 nM	Activity [12]: inactive
Nc1ncnc(C#Cc2ccc(N3CCOCC3)nc2)c1-c1ccc(Cl)cc1	3 nM	58 nM	Activity [4]: 100%; Activity [3]: 29%; Activity [13]: inactive
CN(C)c1ccc(C#Cc2ncnc(NCCc3c[nH]c4ccccc34)c2-c2ccc(Cl)cc2)cc1	38 nM	> 1000 nM	
Nc1ncnc(C#Cc2cnc(N3CCOCC3)nc2)c1-c1ccc(Cl)cc1	8 nM	200 nM	Activity [4]: 100%; Activity [3]: 36%; Activity [13]: inactive
COc1ccc(-c2c(N)ncnc2C#Cc2ccc(N(C)C)cc2)cc1OC	20 nM	500 nM	
CN(C)c1ccc(C#Cc2cc(N)ncn2)cc1	> 1000 nM		
CN(C)c1ccc(C#Cc2ncnc(N)c2-c2ccc(Cl)cc2)cn1			Activity [4]: 73%; Activity [3]: 20%; Activity [13]: inactive
Nc1ncnc(C#Cc2ccc(N3CCOCC3)cc2)c1-c1ccc(Cl)cc1	17 nM	275 nM	Activity [4]: 67%; Activity [3]: 20%
Nc1ncnc(C#Cc2ccc(N3CCOCC3)nn2)c1-c1ccc(Cl)cc1	45 nM	700 nM	
CN(C)c1ccc(C#Cc2ncnc(N3CCOCC3)c2-c2ccc(Cl)cc2)cc1	6 nM	970 nM	
